Entries after “also recorded” stand apart in the source; their conditions may differ.
Tests used:
shelterin complex [1] = target: T1, shelterin complex (Homo sapiens, UniProt P54274); experiment: SDS-PAGE/Western blot of crosslinked shelterin after compound incubation; type: biochemical
T1 construct: evicted full-length TRF1 from the shelterin complex; made in house; host or cells: Spodoptera frugiperda (Sf9) insect cells, MultiBac baculovirus
T1 sequence (P54274 1-439): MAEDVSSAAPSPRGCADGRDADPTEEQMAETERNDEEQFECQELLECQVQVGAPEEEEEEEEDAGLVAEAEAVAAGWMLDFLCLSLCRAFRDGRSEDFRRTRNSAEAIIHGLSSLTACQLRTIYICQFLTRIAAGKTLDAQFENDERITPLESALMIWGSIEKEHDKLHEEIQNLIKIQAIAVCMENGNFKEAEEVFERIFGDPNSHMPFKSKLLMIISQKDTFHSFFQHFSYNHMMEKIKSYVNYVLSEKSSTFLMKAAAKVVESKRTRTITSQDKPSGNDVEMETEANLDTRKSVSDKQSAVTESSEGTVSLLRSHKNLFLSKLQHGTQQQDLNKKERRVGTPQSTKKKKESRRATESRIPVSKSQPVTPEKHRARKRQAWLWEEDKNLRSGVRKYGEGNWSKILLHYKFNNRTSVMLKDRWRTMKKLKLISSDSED
Text: We developed a mass-photometry based assay to evaluate the ability of compound 40 to disrupt the TRF1TRFH:TIN2TBM interaction and subsequently evict TRF1 from the full shelterin complex. We expressed recombinant shelterin in insect cells (see Materials and Methods) and purified it via affinity and size exclusion chromatography (SEC). Given the compositional heterogeneity of shelterin, also observed by Zinder et al. 2022[42], we enriched a complex of approximately 700 kDa by serial SEC. The resulting complex was incubated with increasing concentrations of compound 40, and the resulting mass distribution was analysed by mass photometry. […] To confirm whether the evicted entity corresponds to TRF1, we analysed the full shelterin complex by SDS-PAGE, upon co-incubation with increasing amounts of compound 40 or control compound 60 and subsequent mild crosslinking, analogous to the mass photometry experiment. […]
For SDS-PAGE and Western blotting studies, SEC-purified shelterin was diluted to 0.9 µM and incubated with increasing concentrations of compound 40 or 60 (negative control) in the same range as for the MP experiment (from 0 to 300 µM). […] The samples were then analysed by SDS-PAGE, followed by either Coomassie staining or Western blotting. […] Normalised signal intensities from three independent experiments were analysed and plotted using GraphPad Prism (v10.5.0).

shelterin complex [2] = target: T1, shelterin complex; experiment: Mass photometry assay of TRF1 eviction from shelterin; type: biochemical
Text: We developed a mass-photometry based assay to evaluate the ability of compound 40 to disrupt the TRF1TRFH:TIN2TBM interaction and subsequently evict TRF1 from the full shelterin complex. We expressed recombinant shelterin in insect cells (see Materials and Methods) and purified it via affinity and size exclusion chromatography (SEC). Given the compositional heterogeneity of shelterin, also observed by Zinder et al. 2022[42], we enriched a complex of approximately 700 kDa by serial SEC. The resulting complex was incubated with increasing concentrations of compound 40, and the resulting mass distribution was analysed by mass photometry. Due to disassembly of the complex upon dilution to nanomolar concentrations required for mass photometry, we stabilised it by limited crosslinking using glutaraldehyde prior to dilution to assess potential TRF1 dissociation (Supplementary Fig. 6). With increasing concentrations of compound 40, we observed an increase in a peak around 100 kDa, corresponding in size to the full-length TRF1 dimer (Fig. 6a; Supplementary Fig. 7a, b), consistent with eviction of TRF1 from shelterin. […] Additionally, the mass photometry peak of shelterin shifted and reduced in size by approximately 100 kDa upon the addition of > 250 µM of compound 40, indicating the removal of TRF1 from the complex (Fig. 6a). To confirm whether the evicted entity corresponds to TRF1, we analysed the full shelterin complex by SDS-PAGE, upon co-incubation with increasing amounts of compound 40 or control compound 60 and subsequent mild crosslinking, analogous to the mass photometry experiment. […] To confirm its identity, we performed Western blotting, probing for TRF1, TRF2 and TIN2. This analysis confirmed that the released protein is TRF1 (Fig. 6c, f).
Mass Photometry (MP) experiments were performed using a Refeyn OneMP instrument. […] Data were processed and analysed using Refeyn DiscoverMP software (v2024 R2). Gaussian fits for the mass distribution histograms, mass measurements and percentage abundances (of peak counts to total counts) were determined for each peak observed.

## COc1cc(COc2ccc(S(=O)(=O)[O-])c3ccccc23)cc(OC)c1.[Na+] [Compound 40]
Shelterin complex [1]; 0.9 µM shelterin, 0-300 µM compound, 0.075% glutaraldehyde
  release of TRF1 (species migrating between 100 and 150 kDa): dose-dependently liberated
Shelterin complex [1]; Western blot probing for TRF2 and TIN2
  release of TRF2 and TIN2 from shelterin: TRF2 was not released, nor was TIN2
Shelterin complex [2]; 1.25 µM shelterin, 100-300 µM compound, 1 h, glutaraldehyde crosslinking, n = 1
  concentration at which TRF1 eviction reaches a plateau: 250 µM
Shelterin complex [2]; compound 40 at 100-300 µM, compound 60 at 300 µM
  eviction of TRF1 from shelterin (100-kDa TRF1 peak): expels TRF1 from purified shelterin; also recorded: concentration-dependent increase in eviction of TRF1
Shelterin complex [2]; upon addition of > 250 µM compound
  reduction in size of shelterin mass photometry peak: around 100 kDa

— PMC12635197, “Discovery of first-in-class inhibitors of the TRF1:TIN2 protein:protein interaction by fragment screening” (Scientific Reports, 2025)
